Literature values as cited in patent US9072700B2, “Methods of using derivatives of (−)-venlafaxine” (Sunovion Pharmaceuticals Inc., priority 1998, dated 2015).

Columns and labels:
[1] = Klamerus et al. 1992
norepinephrine uptake = details: in vitro; Muth et al. 1991
dopamine uptake = details: in vitro; Muth et al. 1991
serotonin uptake = details: Howell et al. 1994
[2] = system: norepinephrine synaptosomal uptake; details: Howell et al. 1994

For `CN(C)CC(c1ccc(O)cc1)C1(O)CCCCC1` (racemic) [O-desmethylvenlafaxine, (±)-1-[2-(dimethylamino)-1-(4-phenol)ethyl]cyclohexanol], the “half-life (t½)” value [1] is listed as “about 10 hours”, the “half-life relative to that of venlafaxine” value ([1]; ratio to venlafaxine half-life) is listed as “approximately 2.5 times” and the “inhibition of norepinephrine uptake compared with racemic venlafaxine” value (norepinephrine uptake) is listed as “more potent inhibitor”. For the same molecule, the “inhibition of dopamine uptake compared with racemic venlafaxine” value (dopamine uptake) was “more potent inhibitor”.
In the case of `COc1ccc(C(CN(C)C)C2(O)CCCCC2)cc1` (single isomer, unassigned; (+)) [(+) enantiomer], the “selectivity in inhibiting serotonin uptake, enantiomer comparison” value (serotonin uptake) is listed as “more selective”.
In the case of `COc1ccc([C@H](CN(C)C)C2(O)CCCCC2)cc1` [(−) enantiomer], the “inhibition of norepinephrine synaptosomal uptake, enantiomer comparison” value [2] is listed as “more potent inhibitor”.
